How the values were obtained:
MDA-MB-435 = assay: NCI 60 cell line five dose, Melanoma
COLO 205 = assay: NCI 60 cell line five dose, Colon Cancer
UACC-62 = assay: NCI 60 cell line five dose, Melanoma
SNB-75 = assay: NCI 60 cell line five dose, CNS Cancer
UACC-257 = assay: NCI 60 cell line five dose, Melanoma
RPMI-8226 = assay: NCI 60 cell line five dose, Leukemia
RXF 393 = assay: NCI 60 cell line five dose, Renal Cancer
HS 578T = assay: NCI 60 cell line five dose, Breast Cancer; settings: for Percent Growth: HS578T
NCI-H522 = assay: NCI 60 cell line five dose, Non-Small Cell Lung Cancer
SF-295 = assay: NCI 60 cell line five dose, CNS Cancer
A498 = assay: NCI 60 cell line five dose, Renal Cancer
BT-549 = assay: NCI 60 cell line five dose, Breast Cancer

C=C1C(=O)O[C@H]2[C@H]1CC/C(COC(=O)NCCCCNC(=O)OC/C1=C/CC[C@@]3(C)O[C@H]3[C@H]3OC(=O)C(=C)[C@@H]3CC1)=C\CC[C@@]1(C)O[C@@H]21 [JVM 3-54, bis(((1aR,7aS,10aS,10bS,E)-1a-Methyl-8-methylene-9-oxo-1a,2,3,6,7,7a,8,9,10a,10b-decahydrooxireno[2′,3′:9,10]cyclodeca[1,2-b]furan-5-yl)methyl)butane-1,4-diyldicarbamate]
Percent Growth (MDA-MB-435; Log10 Concentration −7.0): 82%
Percent Growth (MDA-MB-435; Log10 Concentration −8.0): 100%
CC50 (MDA-MB-435; read-out: LC50): 9.42 µM
GI50 (COLO 205): 0.466 µM
TGI (COLO 205): 1.8 µM
Percent Growth (COLO 205; Log10 Concentration −4.0): −61%
Percent Growth (COLO 205; Log10 Concentration −5.0): −73%
Percent Growth (COLO 205; Log10 Concentration −6.0): 25%
Percent Growth (COLO 205; Log10 Concentration −7.0): 100%
Percent Growth (COLO 205; Log10 Concentration −8.0): 100%
CC50 (COLO 205; read-out: LC50): 5.79 µM
GI50 (UACC-62): 0.753 µM
TGI (UACC-62): 2.5 µM
Percent Growth (UACC-62; Log10 Concentration −4.0): −86%
Percent Growth (UACC-62; Log10 Concentration −5.0): −67%
Percent Growth (UACC-62; Log10 Concentration −6.0): 44%
Percent Growth (UACC-62; Log10 Concentration −7.0): 93%
Percent Growth (UACC-62; Log10 Concentration −8.0): 95%
CC50 (UACC-62; read-out: LC50): 7.06 µM
GI50 (SNB-75): 2.19 µM
TGI (SNB-75): 16.5 µM
Percent Growth (SNB-75; Log10 Concentration −4.0): −65%
Percent Growth (SNB-75; Log10 Concentration −5.0): 18%
Percent Growth (SNB-75; Log10 Concentration −6.0): 67%
Percent Growth (SNB-75; Log10 Concentration −7.0): 64%
Percent Growth (SNB-75; Log10 Concentration −8.0): 70%
CC50 (SNB-75; read-out: LC50): 66.3 µM
GI50 (UACC-257): 1.68 µM
TGI (UACC-257): 4.99 µM
Percent Growth (UACC-257; Log10 Concentration −4.0): −82%
Percent Growth (UACC-257; Log10 Concentration −5.0): −32%
Percent Growth (UACC-257; Log10 Concentration −6.0): 74%
Percent Growth (UACC-257; Log10 Concentration −7.0): 92%
Percent Growth (UACC-257; Log10 Concentration −8.0): 95%
CC50 (UACC-257; read-out: LC50): 22.9 µM
GI50 (RPMI-8226): 0.547 µM
TGI (RPMI-8226): 3.08 µM
Percent Growth (RPMI-8226; Log10 Concentration −4.0): −42%
Percent Growth (RPMI-8226; Log10 Concentration −5.0): −33%
Percent Growth (RPMI-8226; Log10 Concentration −6.0): 31%
Percent Growth (RPMI-8226; Log10 Concentration −7.0): 102%
Percent Growth (RPMI-8226; Log10 Concentration −8.0): 101%
CC50 (RPMI-8226; read-out: LC50): > 100 µM
GI50 (RXF 393): 1.44 µM
TGI (RXF 393): 3.36 µM
Percent Growth (RXF 393; Log10 Concentration −4.0): −100%
Percent Growth (RXF 393; Log10 Concentration −5.0): −64%
Percent Growth (RXF 393; Log10 Concentration −6.0): 71%
Percent Growth (RXF 393; Log10 Concentration −7.0): 95%
Percent Growth (RXF 393; Log10 Concentration −8.0): 100%
CC50 (RXF 393; read-out: LC50): 7.84 µM
GI50 (HS 578T; HS 578T): 2.54 µM
TGI (HS 578T; HS 578T): 8.14 µM
Percent Growth (HS 578T; Log10 Concentration −4.0): −27%
Percent Growth (HS 578T; Log10 Concentration −5.0): −9%
Percent Growth (HS 578T; Log10 Concentration −6.0): 90%
Percent Growth (HS 578T; Log10 Concentration −7.0): 92%
Percent Growth (HS 578T; Log10 Concentration −8.0): 90%
GI50 (NCI-H522): 0.167 µM
TGI (NCI-H522): 0.375 µM
Percent Growth (NCI-H522; Log10 Concentration −4.0): −71%
Percent Growth (NCI-H522; Log10 Concentration −5.0): −75%
Percent Growth (NCI-H522; Log10 Concentration −6.0): −60%
Percent Growth (NCI-H522; Log10 Concentration −7.0): 82%
Percent Growth (NCI-H522; Log10 Concentration −8.0): 95%
CC50 (NCI-H522; read-out: LC50): 0.845 µM
GI50 (SF-295): 13 µM
TGI (SF-295): 27.4 µM
Percent Growth (SF-295; Log10 Concentration −4.0): −87%
Percent Growth (SF-295; Log10 Concentration −5.0): 68%
Percent Growth (SF-295; Log10 Concentration −6.0): 98%
Percent Growth (SF-295; Log10 Concentration −7.0): 89%
Percent Growth (SF-295; Log10 Concentration −8.0): 92%
CC50 (SF-295; read-out: LC50): 57.7 µM
GI50 (A498): 6.36 µM
TGI (A498): 18.9 µM
Percent Growth (A498; Log10 Concentration −4.0): −99%
Percent Growth (A498; Log10 Concentration −5.0): 38%
Percent Growth (A498; Log10 Concentration −6.0): 99%
Percent Growth (A498; Log10 Concentration −7.0): 94%
Percent Growth (A498; Log10 Concentration −8.0): 97%
CC50 (A498; read-out: LC50): 43.9 µM
GI50 (BT-549): 1.6 µM
TGI (BT-549): 3.63 µM
Percent Growth (BT-549; Log10 Concentration −4.0): −98%
Percent Growth (BT-549; Log10 Concentration −5.0): −62%
Percent Growth (BT-549; Log10 Concentration −6.0): 79%
Percent Growth (BT-549; Log10 Concentration −7.0): 91%
Percent Growth (BT-549; Log10 Concentration −8.0): 100%
